The structures appear in SMILES notation.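 Dose response: 5 concentrations. Exposure: 48 h. Format: 96-well plates. Endpoint: linear interpolation; highest concentration if not reached. At the GI50, growth is halved. The concentration for full growth arrest is given as TGI.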 Bounds are passed on as bounds.

Test systems include SF-539 CNS; CAKI-1 renal; SK-OV-3 ovarian; SR leukemia; HCT-15 colon; HOP-62 NSCLC; UO-31 renal; RXF 393 renal; HCC-2998 colon.
Test in all cases: DTP human tumour cell line panel, 48 h

As usually defined, the TGI is the concentration giving total growth inhibition. High values mean lower sensitivity of the cells, low ones greater sensitivity of the cells. On to `NC(CCSCCF)C(=O)O` (stereo not given), for which the total growth inhibition concentration (TGI) with SF-539 CNS, in the assay with CAKI-1 renal, with SK-OV-3 ovarian, in the assay with SR leukemia, in the assay with HCT-15 colon and in the assay on HOP-62 NSCLC was greater than 100 µM throughout. In the assay with UO-31 renal, this molecule had a total growth inhibition concentration (TGI) greater than 100 µM.
On to `COC(=O)c1ccc(N/C=C(/C#N)c2ccsc2)cc1`, for which the TGI is 32.3 µM in the assay with SF-539 CNS; 23.9 µM with RXF 393 renal; 30.5 µM in the assay on CAKI-1 renal; 44.5 µM with HCC-2998 colon; greater than 100 µM with SR leukemia; greater than 100 µM with HCT-15 colon. The TGI was determined as 28.2 µM in the assay with HOP-62 NSCLC and 32.5 µM in the assay with UO-31 renal.
As to `COc1cc2ccnc(-c3n[nH]c4cc(OC)c(OC)cc34)c2cc1OC`, the TGI in the assay on SF-539 CNS, in the assay on CAKI-1 renal, with SK-OV-3 ovarian, in the assay on HCC-2998 colon, in the assay on SR leukemia and in the assay with HCT-15 colon was greater than 100 µM each time. For the same molecule, the TGI in the assay with HOP-62 NSCLC and in the assay on UO-31 renal was greater than 100 µM throughout.
In the case of `CCCCCCCCCCCc1cc(=O)c2c(O)cccc2o1`, the concentration for total growth inhibition (TGI) in the assay on SF-539 CNS, in the assay with RXF 393 renal, with CAKI-1 renal, in the assay on SK-OV-3 ovarian, in the assay on HCC-2998 colon and in the assay with SR leukemia was greater than 100 µM throughout. The TGI in the assay with HCT-15 colon, in the assay with HOP-62 NSCLC and with UO-31 renal was greater than 100 µM throughout.
One may read the GI50 as the concentration at which growth is held to half of that of the control. For `O=C(/C=C/c1cc(O)ccc1O)c1ccc(Cl)cc1`, the GI50 in the assay with RXF 393 renal is greater than 100 µM; in the assay on CAKI-1 renal it was 44 µM; in the assay with HCT-15 colon, 28 µM; with HOP-62 NSCLC, 20.5 µM; in the assay with UO-31 renal it was 96.7 µM. Further, the TGI in the assay with RXF 393 renal is greater than 100 µM; in the assay on CAKI-1 renal, greater than 100 µM; in the assay on HCT-15 colon it was greater than 100 µM; in the assay on HOP-62 NSCLC it was 52.2 µM; with UO-31 renal, greater than 100 µM.
For `CC(=O)Nc1ccc(S(=O)(=O)N/N=C(\C)CN2C(=O)c3ccccc3C2=O)cc1`, the TGI in the assay on SF-539 CNS, in the assay with CAKI-1 renal, in the assay on SK-OV-3 ovarian, in the assay on HCC-2998 colon, with SR leukemia and with HCT-15 colon was greater than 100 µM throughout. In addition, the TGI with HOP-62 NSCLC and with UO-31 renal was greater than 100 µM each time.
As to `CC(C)CCCC(C)[C@H]1CCC2C3CC=C4C[C@@H](OC(=O)CC(CC(=O)[O-])C(=O)[O-])CC[C@]4(C)C3CC[C@@]21C.N.N.[Pt+4]` (stereo not given in full), the GI50 in the assay on SF-539 CNS was greater than 100 µM; in the assay on RXF 393 renal, 47.1 µM; in the assay on CAKI-1 renal it was greater than 100 µM; in the assay on HCT-15 colon it was greater than 100 µM. The concentration for total growth inhibition (TGI) in the assay on SF-539 CNS, in the assay on RXF 393 renal, in the assay with CAKI-1 renal and in the assay with HCT-15 colon was greater than 100 µM throughout.
With `O=C(CC(=O)c1cccc2ccccc12)C(=O)Nc1nccs1`, the concentration for total growth inhibition (TGI) in the assay on SF-539 CNS, with RXF 393 renal, in the assay with CAKI-1 renal, in the assay on SK-OV-3 ovarian, with HCC-2998 colon and in the assay with SR leukemia was greater than 100 µM in each case. Also, the TGI in the assay with HCT-15 colon, in the assay on HOP-62 NSCLC and in the assay on UO-31 renal was greater than 100 µM throughout.
On to `CC/C(=N/O)C(C)C(=O)CCC(=O)Nc1ccc(Cl)cc1` (stereo not given), for which the concentration for total growth inhibition (TGI) with SF-539 CNS, in the assay on RXF 393 renal, in the assay on CAKI-1 renal, with SK-OV-3 ovarian, in the assay with HCC-2998 colon and in the assay with HCT-15 colon was greater than 100 µM each time. In the assay on UO-31 renal, the total growth inhibition concentration (TGI) is greater than 100 µM.
`OCC(O)C(OC1OC(CO)C(O)C(O)C1O)c1nn(-c2ccc(Cl)cc2)c2nc3cc(Cl)c(Cl)cc3nc12` (stereo not given): the total growth inhibition concentration (TGI) in the assay on SF-539 CNS, in the assay on RXF 393 renal, with SK-OV-3 ovarian, in the assay on HCC-2998 colon, with SR leukemia and with HCT-15 colon was greater than 100 µM each time. Besides, the TGI in the assay with HOP-62 NSCLC and in the assay with UO-31 renal was greater than 100 µM in each case.
Consider `NC(=S)N/N=C1/C(=O)N(c2ccccc2)C(=O)C1C(=O)Nc1ccccc1` (stereo not given), for which the TGI with SF-539 CNS, with RXF 393 renal, with CAKI-1 renal, in the assay with SK-OV-3 ovarian, in the assay on HCC-2998 colon and with SR leukemia was greater than 100 µM in each case. Moreover, the TGI with HCT-15 colon, with HOP-62 NSCLC and with UO-31 renal was greater than 100 µM throughout.
As to `CC(=O)NC(CCCCN(Cc1ccccc1)C(=O)N(C)N=O)C(=O)NCc1ccccc1` (stereo not given), the concentration for total growth inhibition (TGI) with SF-539 CNS, in the assay with RXF 393 renal, in the assay with CAKI-1 renal, in the assay with SK-OV-3 ovarian, in the assay with HCC-2998 colon and with HCT-15 colon was greater than 100 µM in each case. In addition, the total growth inhibition concentration (TGI) with HOP-62 NSCLC and in the assay on UO-31 renal was greater than 100 µM throughout.
Turning to `[N-]=[N+]=Nc1nnc(CCCCc2nnc(N=[N+]=[N-])o2)o1`, the TGI with SF-539 CNS, in the assay on RXF 393 renal, with SK-OV-3 ovarian, with HCC-2998 colon, in the assay on HCT-15 colon and in the assay with HOP-62 NSCLC was greater than 100 µM in each case. In addition, in the assay on UO-31 renal, the TGI was greater than 100 µM.
Turning to `COc1ccc(C2C(C(=O)O)=C(CO)Oc3cc4c(cc32)OCO4)c(OC)c1` (stereo not given), the TGI was greater than 100 µM in the assay on SF-539 CNS; greater than 100 µM in the assay on RXF 393 renal; greater than 100 µM in the assay on CAKI-1 renal; greater than 100 µM with SK-OV-3 ovarian; greater than 100 µM with HCT-15 colon; 72 µM in the assay with HOP-62 NSCLC. Besides, the concentration for total growth inhibition (TGI) in the assay with UO-31 renal was greater than 100 µM.
Turning to `O=c1c2cc(Br)ccc2n(C2OC(CO)C(O)C(O)C2O)c(=S)n1-c1ccccc1` (stereo not given), the TGI in the assay with SF-539 CNS, in the assay on RXF 393 renal, with HCC-2998 colon, with SR leukemia, in the assay with HCT-15 colon and with HOP-62 NSCLC was greater than 100 µM in each case. Further, the TGI with UO-31 renal was greater than 100 µM.

The values are drawn from PubChem BioAssay (NCI).
